Measured values taken from US20260193293A1, “PEPTIDES CAPABLE OF INHIBITING PROTEIN-PROTEIN INTERACTIONS AT GABAB1A SUBUNIT AND USES THEREOF” (UNIVERSITY OF COPENHAGEN, priority 2022, published 2026).
Read-outs that look alike come from different tables or passages of the source. Each block holds one compound with its values, some of them ahead of it. Residues, ends and D or L forms follow the SMILES beside them.

Target: Sushi domains (SD1/2) protein
Assay: Fluorescence polarization (FP) competition assay with AJAP-1probe, calculated Ki
Format: binding
Conditions: read-out: Ki (nM) mean ± SEM
Procedure: Fluorescence polarization (FP). FP assay was employed to determine the binding affinity of peptides in flat bottom black 384-well plates (Corning Life Science) using a Safire2 plate reader (Tecan). All experiments were conducted in 1×PBS (pH 7.4) containing 1% bovine serum albumin (BSA) at rt. The fluorescence polarization values were measured using excitation/emission wavelengths of 530/580 nm. The instrumental Z-factor was adjusted to obtain the maximum fluorescence intensity and the G-factor was calibrated to give an initial millipolarization value of 20 mP. All FP assays including saturation or competition experiments were performed using 25 nM of TAMRA labeled peptides as probes. For saturation assay, the millipolarization values were measured after mixing of probes with 12 serial 1 to 1 diluted concentrations of Sushi domains (SD1/2) protein. All experiments were performed in triplicate and the data were plotted to the one-site binding model using GraphPad Prism 9 to calculate the Kd of probes. […] The experiments were performed at least in triplicate and the data were fitted to the sigmoidal dose response curve using GraphPad Prism 9 to obtain the IC50 of peptides. The Ki values were calculated according to Nikolovska-Coleska et al^310.

[1] = Table 4, truncation and elongation scans of APP epitope
[2] = Table 3, SPOT hit validation and previously reported peptides
[3] = Table 11, deep mutational scanning validation variants of AJAP-1WT

Ki [1]: 237 ± 8 nM
SMILES: CC(=O)N[C@@H](C)C(=O)N[C@@H](CCC(=O)O)C(=O)N[C@@H](CCC(=O)O)C(=O)N[C@@H](CC(=O)O)C(=O)N[C@@H](CC(=O)O)C(=O)N[C@@H](CO)C(=O)N[C@@H](CC(=O)O)C(=O)N[C@H](C(=O)N[C@@H](Cc1c[nH]c2ccccc12)C(=O)N[C@@H](Cc1c[nH]c2ccccc12)C(=O)NCC(=O)NCC(=O)N[C@@H](C)C(=O)N[C@@H](CC(=O)O)C(=O)N[C@H](C(=O)N[C@@H](CC(=O)O)C(=O)N[C@@H](Cc1ccc(O)cc1)C(=O)N[C@@H](C)C(=O)N[C@@H](CC(=O)O)C(N)=O)[C@@H](C)O)C(C)C

Ki [2]: 39 ± 1 nM
SMILES: CC[C@H](C)[C@H](NC(=O)[C@H](Cc1ccccc1)NC(=O)[C@H](CCC(=O)O)NC(=O)[C@@H](NC(=O)[C@H](CCC(=O)O)NC(C)=O)[C@@H](C)O)C(=O)N[C@@H](C)C(=O)N[C@@H](Cc1c[nH]c2ccccc12)C(=O)NCC(=O)N1CCC[C@H]1C(=O)N[C@H](C(=O)NCC(=O)N[C@@H](CC(=O)O)C(=O)N[C@@H](CCC(=O)O)C(=O)N[C@@H](CC(=O)O)C(=O)N[C@@H](C)C(N)=O)[C@@H](C)O

Ki [3]: 39 ± 2 nM
SMILES: CC[C@H](C)[C@H](NC(=O)[C@H](Cc1ccccc1)NC(=O)[C@H](CCC(=O)O)NC(=O)[C@@H](NC(=O)[C@H](CCC(=O)O)NC(C)=O)[C@@H](C)O)C(=O)N[C@@H](C)C(=O)N[C@@H](Cc1c[nH]c2ccccc12)C(=O)NCC(=O)N1CCC[C@H]1C(=O)N[C@H](C(=O)NCC(=O)N[C@@H](CC(=O)O)C(=O)N[C@@H](CCC(=O)O)C(=O)N[C@@H](Cc1c[nH]cn1)C(N)=O)[C@@H](C)O

Ki [3]: 39 ± 1 nM
SMILES: CC[C@H](C)[C@H](NC(=O)[C@H](Cc1ccccc1)NC(=O)[C@H](CCC(=O)O)NC(=O)[C@@H](NC(=O)[C@H](CCC(=O)O)NC(C)=O)[C@@H](C)O)C(=O)N[C@@H](C)C(=O)N[C@@H](Cc1c[nH]c2ccccc12)C(=O)NCC(=O)N1CCC[C@H]1C(=O)N[C@H](C(=O)NCC(=O)N[C@@H](CC(=O)O)C(=O)N[C@@H](CCC(=O)O)C(=O)N[C@@H](Cc1ccc(O)cc1)C(N)=O)[C@@H](C)O

Ki [3]: 39 ± 2 nM
SMILES: CC[C@H](C)[C@H](NC(=O)[C@H](Cc1ccccc1)NC(=O)[C@H](CCC(=O)O)NC(=O)[C@@H](NC(=O)[C@H](CCC(=O)O)NC(C)=O)[C@@H](C)O)C(=O)N[C@@H](C)C(=O)N[C@@H](Cc1c[nH]c2ccccc12)C(=O)NCC(=O)N1CCC[C@H]1C(=O)N[C@H](C(=O)NCC(=O)N[C@@H](CC(=O)O)C(=O)N[C@@H](Cc1c[nH]cn1)C(=O)N[C@@H](CC(=O)O)C(N)=O)[C@@H](C)O

Ki [3]: 39 ± 1 nM
SMILES: CC[C@H](C)[C@H](NC(=O)[C@H](Cc1ccccc1)NC(=O)[C@H](CCC(=O)O)NC(=O)[C@@H](NC(=O)[C@H](CCC(=O)O)NC(C)=O)[C@@H](C)O)C(=O)N[C@@H](C)C(=O)N[C@@H](Cc1c[nH]c2ccccc12)C(=O)NCC(=O)N1CCC[C@H]1C(=O)N[C@H](C(=O)NCC(=O)N[C@@H](CC(=O)O)C(=O)N[C@@H](CC(N)=O)C(=O)N[C@@H](CC(=O)O)C(N)=O)[C@@H](C)O

Ki [3]: 39 ± 1 nM
SMILES: CC[C@H](C)[C@H](NC(=O)[C@H](Cc1ccccc1)NC(=O)[C@H](CCC(=O)O)NC(=O)[C@@H](NC(=O)[C@H](CCC(=O)O)NC(C)=O)[C@@H](C)O)C(=O)N[C@@H](C)C(=O)N[C@@H](Cc1c[nH]c2ccccc12)C(=O)NCC(=O)N1CCC[C@H]1C(=O)N[C@H](C(=O)NCC(=O)N[C@@H](CC(=O)O)C(=O)N[C@H](C(=O)N[C@@H](CC(=O)O)C(N)=O)C(C)C)[C@@H](C)O

Ki (Table 5, elongation and truncation scan of AJAP-1 binding epitope): 58 ± 0.4 nM
SMILES: CC[C@H](C)[C@H](NC(=O)[C@H](Cc1ccccc1)NC(=O)[C@H](CCC(=O)O)NC(=O)[C@@H](NC(=O)[C@H](CCC(=O)O)NC(=O)[C@@H](NC(=O)[C@@H](NC(=O)[C@@H]1CCCN1C(=O)[C@H](CCCNC(=N)N)NC(C)=O)[C@@H](C)O)[C@@H](C)O)[C@@H](C)O)C(=O)N[C@@H](C)C(=O)N[C@@H](Cc1c[nH]c2ccccc12)C(=O)NCC(=O)N1CCC[C@H]1C(=O)N[C@H](C(=O)NCC(=O)N[C@@H](CC(=O)O)C(=O)N[C@@H](CCC(=O)O)C(=O)N[C@@H](CC(=O)O)C(N)=O)[C@@H](C)O

Ki [2]: 1530 ± 46 nM
SMILES: CC(=O)N[C@@H](C)C(=O)N[C@@H](CC(=O)O)C(=O)N[C@@H](C)C(=O)N[C@@H](CCC(=O)O)C(=O)N[C@@H](CCC(=O)O)C(=O)N[C@@H](CC(=O)O)C(=O)N[C@@H](CC(=O)O)C(=O)N[C@@H](CO)C(=O)N[C@@H](CC(=O)O)C(=O)N[C@H](C(=O)N[C@@H](Cc1c[nH]c2ccccc12)C(=O)N[C@@H](Cc1c[nH]c2ccccc12)C(=O)NCC(=O)NCC(=O)N[C@@H](C)C(N)=O)C(C)C (Ac-ADAEEDDSDVWWGGA-NH2)

Ki [1]: 500 ± 16 nM
SMILES: CC(=O)N[C@@H](C)C(=O)N[C@@H](CC(=O)O)C(=O)N[C@@H](C)C(=O)N[C@@H](CCC(=O)O)C(=O)N[C@@H](CCC(=O)O)C(=O)N[C@@H](CC(=O)O)C(=O)N[C@@H](CC(=O)O)C(=O)N[C@@H](CO)C(=O)N[C@@H](CC(=O)O)C(=O)N[C@H](C(=O)N[C@@H](Cc1c[nH]c2ccccc12)C(=O)N[C@@H](Cc1c[nH]c2ccccc12)C(=O)NCC(=O)NCC(=O)N[C@@H](C)C(=O)N[C@@H](CC(=O)O)C(=O)N[C@H](C(=O)N[C@@H](CC(=O)O)C(=O)N[C@@H](Cc1ccc(O)cc1)C(=O)N[C@@H](C)C(=O)N[C@@H](CC(=O)O)C(N)=O)[C@@H](C)O)C(C)C (Ac-ADAEEDDSDVWWGGADTDYAD-NH2)

Ki (Table 7, Ala-, D-amino acids and N-methylation scans of APPWT): 803 ± 5 nM
SMILES: CC(=O)N[C@@H](C)C(=O)N[C@@H](CC(=O)O)C(=O)N[C@@H](CC(=O)O)C(=O)N[C@@H](CO)C(=O)N[C@@H](CC(=O)O)C(=O)N[C@H](C(=O)N[C@@H](Cc1c[nH]c2ccccc12)C(=O)N[C@@H](Cc1c[nH]c2ccccc12)C(=O)NCC(=O)NCC(=O)N[C@@H](C)C(=O)N[C@@H](CC(=O)O)C(=O)N[C@H](C(=O)N[C@@H](CC(=O)O)C(N)=O)[C@@H](C)O)C(C)C (Ac-ADDSDVWWGGADTD-NH2)

Ki (Table 6, elongation and truncation scan of PIANP binding epitope): 5550 ± 11 nM
SMILES: CC[C@H](C)[C@H](NC(=O)[C@H](C)NC(C)=O)C(=O)N[C@H](C(=O)N[C@@H](Cc1c[nH]c2ccccc12)C(=O)NCC(=O)N1CCC[C@H]1C(=O)N[C@H](C(=O)N[C@H](C(=O)N[C@@H](CO)C(=O)N[C@@H](CCCNC(=N)N)C(=O)N[C@@H](CCC(=O)O)C(=O)N[C@@H](CC(=O)O)C(=O)NCC(N)=O)C(C)C)[C@@H](C)O)C(C)C (Ac-AIVWGPTVSREDG-NH2)

Ki [2]: 637 ± 45 nM
SMILES: CC[C@H](C)[C@H](NC(=O)[C@H](C)NC(C)=O)C(=O)N[C@H](C(=O)N[C@@H](Cc1c[nH]c2ccccc12)C(=O)NCC(=O)N1CCC[C@H]1C(=O)N[C@H](C(=O)N[C@H](C(=O)N[C@@H](CO)C(=O)N[C@@H](CCCNC(=N)N)C(=O)N[C@@H](CCC(=O)O)C(=O)N[C@@H](CC(=O)O)C(=O)NCC(=O)NCC(=O)N[C@@H](CC(=O)O)C(N)=O)C(C)C)[C@@H](C)O)C(C)C (Ac-AIVWGPTVSREDGGD-NH2)

Ki [1]: 247 ± 7 nM
SMILES: CC(=O)N[C@@H](CC(=O)O)C(=O)N[C@@H](C)C(=O)N[C@@H](CCC(=O)O)C(=O)N[C@@H](CCC(=O)O)C(=O)N[C@@H](CC(=O)O)C(=O)N[C@@H](CC(=O)O)C(=O)N[C@@H](CO)C(=O)N[C@@H](CC(=O)O)C(=O)N[C@H](C(=O)N[C@@H](Cc1c[nH]c2ccccc12)C(=O)N[C@@H](Cc1c[nH]c2ccccc12)C(=O)NCC(=O)NCC(=O)N[C@@H](C)C(=O)N[C@@H](CC(=O)O)C(=O)N[C@H](C(=O)N[C@@H](CC(=O)O)C(=O)N[C@@H](Cc1ccc(O)cc1)C(=O)N[C@@H](C)C(=O)N[C@@H](CC(=O)O)C(N)=O)[C@@H](C)O)C(C)C (Ac-DAEEDDSDVWWGGADTDYAD-NH2)

Ki [2]: 2630 ± 97 nM
SMILES: CC(=O)N[C@@H](CC(=O)O)C(=O)N[C@@H](CC(=O)O)C(=O)N[C@@H](CO)C(=O)N[C@@H](CC(=O)O)C(=O)N[C@H](C(=O)N[C@@H](Cc1c[nH]c2ccccc12)C(=O)N[C@@H](Cc1c[nH]c2ccccc12)C(=O)NCC(=O)NCC(N)=O)C(C)C (Ac-DDSDVWWGG-NH2)

Ki [1]: 517 ± 16 nM
SMILES: CC(=O)N[C@@H](CC(=O)O)C(=O)N[C@@H](CC(=O)O)C(=O)N[C@@H](CO)C(=O)N[C@@H](CC(=O)O)C(=O)N[C@H](C(=O)N[C@@H](Cc1c[nH]c2ccccc12)C(=O)N[C@@H](Cc1c[nH]c2ccccc12)C(=O)NCC(=O)NCC(=O)N[C@@H](C)C(=O)N[C@@H](CC(=O)O)C(=O)N[C@H](C(=O)N[C@@H](CC(=O)O)C(=O)N[C@@H](Cc1ccc(O)cc1)C(=O)N[C@@H](C)C(=O)N[C@@H](CC(=O)O)C(N)=O)[C@@H](C)O)C(C)C (Ac-DDSDVWWGGADTDYAD-NH2)

Ki [2]: 687 ± 17 nM
SMILES: CC(=O)N[C@@H](CC(=O)O)C(=O)N[C@@H](CC(=O)O)C(=O)N[C@@H](CO)C(=O)N[C@@H](CC(=O)O)C(=O)N[C@H](C(=O)N[C@@H](Cc1c[nH]c2ccccc12)C(=O)N[C@@H](Cc1c[nH]c2ccccc12)C(=O)NCC(=O)NCC(=O)N[C@@H](C)C(=O)N[C@@H](CC(=O)O)C(=O)N[C@H](C(=O)N[C@@H](CC(=O)O)C(=O)N[C@@H](Cc1ccc(O)cc1)C(=O)N[C@@H](C)C(=O)N[C@@H](CC(=O)O)C(=O)NCC(N)=O)[C@@H](C)O)C(C)C (Ac-DDSDVWWGGADTDYADG-NH2)
